Source: paper PMC12841663, “Antiprotozoal Potential of Cultivated Geranium macrorrhizum Against Giardia duodenalis, Trichomonas gallinae and Leishmania infantum” (International Journal of Molecular Sciences, 2026)
Converted amounts (≈) assume the structure as drawn.

Legend:
[1] = tested on: G. duodenalis trophozoites; assay: Anti-Giardia activity assay (MTT viability); assay type: cell-based; conditions: pure compounds
Procedure: Anti-Giardia (AG) activity assays were conducted on G. duodenalis trophozoites from the ATCC® 30957 strain (assemblage A), using flat-bottom microwell plates in quadruplicate. […] Incubation was carried out for 24 h at 37 °C. EOs and pure compounds were solved in DMSO (Sigma, Madrid, Spain) (<1% final concentration). […] Trophozoites/promastigotes viability was assessed using the modified MTT colorimetric assay, as described previously in the literature, with results further validated by microscopic examination. The plate was analyzed in a spectrophotometer at a wavelength of 570 nm. The percentage of antiparasitic activity was calculated as growth inhibition, using the following formula: % AT = 100 - [(Ap - Ab) ÷ (Ac - Ab)] × 100, where Ap is the absorbance of the tested product, Ab the absorbance of the blank and Ac the absorbance of the control wells (culture without treatment). […] Metronidazole (Acros Organics, Madrid, Spain) served as a reference compound for anti-Giardia activity and Anti-Trichomonas activity and amphotericin B for anti-Leishmania activity. Data was analyzed using STATGRAPHICS Centurion XIX ([…].com) (Statgraphics Technologies, Inc., The Plains, VA, USA). The mammalian cells and trophozoites viability were tested with each compound in a dose-response experiment to calculate their relative potency (CC50 or IC50 value, respectively).

[2] = tested on: L. infantum promastigotes; assay: Anti-Leishmania activity assay on promastigotes (MTT viability); assay type: cell-based; conditions: pure compounds
Procedure: (§1) Anti-Leishmania (AL) activity was assessed on L. infantum promastigotes (MCAN/ES/98/LLM-722), kindly provided by Dr. J.M. Requena from CBM-CSIC, as well as on L. infantum (M/CAN/ES/96/BCN150 zymodeme MON-1), strain isolated from a dog with active visceral leishmaniasis. L. infantum promastigotes (MCAN/ES/98/LLM-722) were cultured in RPMI medium supplemented with 15% FBS and 10 μg/mL of hemin (Acros Organics, Madrid, Spain), grown at 26 °C. Promastigotes in logarithmic growth were seeded in 96-well flat-bottom plates at a volume of 100 μL of culture per well and incubated for 48 h. Promastigotes for macrophage infection (M/CAN/ES/96/BCN150 zymodeme MON-1) were maintained at 26 °C in Schneider’s insect medium (Lonza, Basel, Switzerland) supplemented with 10% FBS and 100 U/mL penicillin and 100 μg/mL streptomycin (Lonza, Basel, Switzerland) (Pen-Strep). Promastigotes in the stationary phase of growth (5–6 days) were washed twice in phosphate-buffered saline at 2700× g for 10 min at 22 °C and employed for macrophage infection.
EOs and pure compounds were solved in DMSO (Sigma, Madrid, Spain) (<1% final concentration). […] Trophozoites/promastigotes viability was assessed using the modified MTT colorimetric assay, as described previously in the literature, with results further validated by microscopic examination. The plate was analyzed in a spectrophotometer at a wavelength of 570 nm. The percentage of antiparasitic activity was calculated as growth inhibition, using the following formula: % AT = 100 − [(Ap − Ab) ÷ (Ac − Ab)] × 100, where Ap is the absorbance of the tested product, Ab the absorbance of the blank and Ac the absorbance of the control wells (culture without treatment).
Pure compounds were tested using the same method, although at concentrations of 100, 75, 50, 25, 10, and 1 μg/mL. Metronidazole (Acros Organics, Madrid, Spain) served as a reference compound for anti-Giardia activity and Anti-Trichomonas activity and amphotericin B for anti-Leishmania activity.
(§2) Data was analyzed using STATGRAPHICS Centurion XIX (https://www.statgraphics.com) (Statgraphics Technologies, Inc., The Plains, VA, USA). The mammalian cells and trophozoites viability were tested with each compound in a dose–response experiment to calculate their relative potency (CC50 or IC50 value, respectively). IC50 (μg/mL) expresses the dose of EOs, extracts or pure compounds needed to produce 50% mortality of trophozoites, while CC50 (μg/mL) expresses the dose of compounds necessary to produce 50% mortality of Vero cells.

[3] = Cytotoxicity of pure compounds on Vero cells (MTT); assay type: cell-based; conditions: African green monkey
Procedure: African green monkey kidney cells (Vero cells) were maintained in Dulbecco’s modified Eagle’s minimal essential medium (DMEM) (Thermo Fisher Scientific, Waltham, MA, USA) supplemented with 10% FBS and 1% Pen-Strep at 37 °C under a humidified atmosphere of 5% CO2/95% air.
Cells seeded in 96-well flat-bottom microplates with 100 μL medium per well (initial densities 10^4 cells per well) were exposed for 48 h to serial dilutions (100, 75, 50, 25, 10 and 1 µg/mL) of the tested compounds in DMSO (<1% final concentration). Cell viability was analyzed by the MTT colorimetric assay method, and the purple-colored formazan precipitate was dissolved with 100 μL of DMSO [23].
as §2

[4] = tested on: intracellular amastigotes of L. infantum; assay: Infection index of DH82 macrophages infected with L. infantum (intracellular amastigotes); assay type: cell-based, Leishmania infantum; conditions: for nº Amastigotes/Infected Cell / % Infected Cells / Infection Index: DH82 macrophages, 48 h
Procedure: as §1
Canine DH82 (ATCC®-CRL-10389TM) macrophages were maintained in Dulbecco’s modified Eagle’s medium (DMEM) (Thermo Fisher Scientific, Waltham, MA, USA) supplemented with 10% heat-inactivated FBS (Thermo Fisher Scientific, Waltham, MA, USA), and Pen-Strep at 37 °C in 5% CO2.
DH82 cells (5 × 10^4 per well) were seeded in LabTek culture chamber slides (Thermo Scientific, Nunc™, Roskilde, Denmark) and incubated overnight at 37 °C and 5% CO2. On the following day, macrophages were infected with L. infantum stationary phase-promastigotes at a ratio of 5:1 parasites/macrophage and after 4 h of incubation at 37 °C, a time point that reflects initial infection, extracellular promastigotes were removed by washing. Germacrone was added at varying concentrations (10, 50 and 100 μg/mL) and macrophages were incubated in fresh medium for 48 h at 37 °C and 5% CO2. After Giemsa staining, cells were mounted with Vitro-Clud (Deltalab SLU, Barcelona, Spain), and 400 macrophages were counted in duplicate in a microscope Olympus BX41 (Olympus Corporation, Tokyo, Japan). The percentage of infected macrophages and the mean of the number of amastigotes per infected macrophage (defined as the intensity of infection) were evaluated. The infection index was calculated by multiplication of both parameters to account for the overall parasite load.

CC(C)=C1C/C=C(\C)CC/C=C(\C)CC1=O [Compound 2, germacrone]
IC50 [1]: 55.2 µg/mL (≈ 253 µM)
IC50 [2]: 37.5 µg/mL (≈ 172 µM)
CC50 at 48 h [3]: ~100 µg/mL (≈ 458 µM)
nº Amastigotes/Infected Cell ([4]; 10 µg/mL): 2.4 ± 1.1
% Infected Cells ([4]; 10 µg/mL, control of infection 42.8, listed as Germacrone (2)): 25.9 ± 8.3 %
% Infected Cells ([4]; 10 µg/mL, control of infection 42.8, listed as germacrone (2)): 25.9%
Infection Index ([4]; 10 µg/mL, control of infection 152.1, listed as Germacrone (2)): 61.0 ± 9.4
Infection Index ([4]; 10 µg/mL, control of infection 152.1, listed as germacrone (2)): 61.0
reduction of the infection index ([4]; 10 µg/mL, from 152.1 (control) to 61.0): more than 50%
% Infected Cells ([4]; 50 µg/mL): dead cells
Infection Index ([4]; 50 µg/mL): dead cells
nº Amastigotes/Infected Cell ([4]; 50 µg/mL): dead cells
% Infected Cells ([4]; 100 µg/mL): dead cells
Infection Index ([4]; 100 µg/mL): dead cells
nº Amastigotes/Infected Cell ([4]; 100 µg/mL): dead cells
